#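 Exposure lasted 48 hours, with cells grown in 96-well plates and compounds tested at five concentrations. The concentration for 50% growth inhibition is given as GI50.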 The source made the active and inactive calls. Cut-off read from the data, not from the text of the source: active = GI50 up to about 1.1 µM and inactive = higher.
# Legend:
# Test in all cases: NCI anticancer screen, dose series, 48 h
# M14 = test system: M14
# SK-MEL-5 = test system: SK-MEL-5
# OVCAR-4 = test system: OVCAR-4
# T47D = test system: T47D
# DU-145 = test system: DU-145
# BT-549 = test system: BT-549
# SNB-19 = test system: SNB-19
# A498 = test system: A498
# CAKI-1 = test system: CAKI-1
# SW-620 = test system: SW-620
# NCI/ADR-RES = test system: NCI/ADR-RES
# LOX IMVI = test system: LOX IMVI
# CCRF-CEM = test system: CCRF-CEM
# K562 = test system: K562
# HT-29 = test system: HT-29
# U-251 = test system: U-251
# SK-OV-3 = test system: SK-OV-3
# SR = test system: SR
# HOP-92 = test system: HOP-92
SMILES,GI50 (M14),GI50 (SK-MEL-5),GI50 (OVCAR-4),GI50 (T47D),GI50 (DU-145),GI50 (BT-549),GI50 (SNB-19),GI50 (A498),GI50 (CAKI-1),GI50 (SW-620),GI50 (NCI/ADR-RES),GI50 (LOX IMVI),GI50 (CCRF-CEM),GI50 (K562),GI50 (HT-29),GI50 (U-251),GI50 (SK-OV-3),GI50 (SR),GI50 (HOP-92)
COc1cccc(/C=N/[N+](C)(C)C)c1O,> 10 µM (inactive),> 10 µM (inactive),> 10 µM (inactive),> 10 µM (inactive),> 10 µM (inactive),> 10 µM (inactive),> 10 µM (inactive),> 10 µM (inactive),> 10 µM (inactive),> 10 µM (inactive),> 10 µM (inactive),> 10 µM (inactive),> 10 µM (inactive),> 10 µM (inactive),> 10 µM (inactive),> 10 µM (inactive),> 10 µM (inactive),,
CCOC(=O)c1cc(-c2ccn(C(C)=O)c2)c(-c2cc(C)co2)[nH]1,> 100 µM (inactive),> 100 µM (inactive),> 100 µM (inactive),> 100 µM (inactive),> 100 µM (inactive),> 100 µM (inactive),> 100 µM (inactive),> 100 µM (inactive),> 100 µM (inactive),> 100 µM (inactive),> 100 µM (inactive),> 100 µM (inactive),> 100 µM (inactive),> 100 µM (inactive),,> 100 µM (inactive),,> 100 µM (inactive),
COc1cc(N(C)C)ccc1C=c1c2ccccc2n2c1cc(-c1ccccc1)[n+]2C,0.411 µM (active),0.637 µM (active),0.453 µM (active),0.266 µM (active),0.323 µM (active),0.34 µM (active),0.372 µM (active),1.65 µM (inactive),0.472 µM (active),0.276 µM (active),6.47 µM (inactive),0.308 µM (active),0.208 µM (active),0.177 µM (active),0.325 µM (active),0.0581 µM (active),0.347 µM (active),,0.319 µM (active)
Cc1c(CN2CCN(C)CC2)c(CN2CCN(C)CC2)c(C)n1-c1ccc(Cl)cc1,14.6 µM (inactive),16.8 µM (inactive),79.1 µM (inactive),19.2 µM (inactive),> 100 µM (inactive),45 µM (inactive),> 100 µM (inactive),13.6 µM (inactive),25.1 µM (inactive),54.2 µM (inactive),> 100 µM (inactive),,19.3 µM (inactive),23.4 µM (inactive),18.2 µM (inactive),40.2 µM (inactive),> 100 µM (inactive),17.4 µM (inactive),
CCC(=O)O[C@H]1CC[C@H]2[C@@H]3CCC4=C/C(=N/NC(=O)c5cccc6c(=O)c7ccccc7[nH]c56)CC[C@]4(C)[C@H]3CC[C@]12C,> 25 µM (inactive),> 25 µM (inactive),> 25 µM (inactive),> 25 µM (inactive),,> 25 µM (inactive),> 25 µM (inactive),> 25 µM (inactive),,> 25 µM (inactive),> 25 µM (inactive),10.1 µM (inactive),> 25 µM (inactive),> 25 µM (inactive),> 25 µM (inactive),> 25 µM (inactive),> 25 µM (inactive),> 25 µM (inactive),> 25 µM (inactive)
COCN1C(=O)[C@@H]2CCCN2C(=O)c2cc([N+](=O)[O-])ccc21,> 100 µM (inactive),70.1 µM (inactive),76.9 µM (inactive),45.7 µM (inactive),39.8 µM (inactive),62.5 µM (inactive),96.6 µM (inactive),43 µM (inactive),76.7 µM (inactive),65.8 µM (inactive),> 100 µM (inactive),26.3 µM (inactive),,,71.9 µM (inactive),42 µM (inactive),44.7 µM (inactive),,
CCOC(=O)CNc1c(OCc2ccccc2)c(=O)c1=O,> 100 µM (inactive),> 100 µM (inactive),> 100 µM (inactive),> 100 µM (inactive),> 100 µM (inactive),> 100 µM (inactive),> 100 µM (inactive),,,> 100 µM (inactive),> 100 µM (inactive),,> 100 µM (inactive),> 100 µM (inactive),> 100 µM (inactive),> 100 µM (inactive),> 100 µM (inactive),> 100 µM (inactive),
CCCC(=O)n1[nH]c(=O)n(C(C)(C)C)c1=O,> 100 µM (inactive),> 100 µM (inactive),> 100 µM (inactive),> 100 µM (inactive),> 100 µM (inactive),> 100 µM (inactive),> 100 µM (inactive),,> 100 µM (inactive),> 100 µM (inactive),> 100 µM (inactive),> 100 µM (inactive),> 100 µM (inactive),> 100 µM (inactive),> 100 µM (inactive),> 100 µM (inactive),> 100 µM (inactive),> 100 µM (inactive),
CC1(C)CCCCC1/C=C/C(CC(O)(C(F)(F)F)C(F)(F)F)=N\Nc1ccc([N+](=O)[O-])cc1[N+](=O)[O-] (stereo unspecified),4.33 µM (inactive),0.395 µM (active),1.35 µM (inactive),0.365 µM (active),2.52 µM (inactive),0.376 µM (active),4.5 µM (inactive),1.25 µM (inactive),,1.86 µM (inactive),4.32 µM (inactive),1.78 µM (inactive),0.662 µM (active),0.368 µM (active),1.76 µM (inactive),2.33 µM (inactive),0.979 µM (active),0.518 µM (active),
O=C(/C=C/c1c[nH]c2ccccc12)c1ccccc1O,14 µM (inactive),,10.7 µM (inactive),1.75 µM (inactive),11.7 µM (inactive),12.4 µM (inactive),16.5 µM (inactive),15.1 µM (inactive),,18.5 µM (inactive),,5.08 µM (inactive),,5.32 µM (inactive),15.1 µM (inactive),13.4 µM (inactive),15.1 µM (inactive),,4.68 µM (inactive)
CC#CC(O)(C(=O)OC1CC(C)N(C)C(C)(C)C1)C1CCCC1 (stereo unspecified),> 100 µM (inactive),> 100 µM (inactive),,> 100 µM (inactive),> 100 µM (inactive),> 100 µM (inactive),> 100 µM (inactive),,> 100 µM (inactive),> 100 µM (inactive),29 µM (inactive),> 100 µM (inactive),> 100 µM (inactive),> 100 µM (inactive),> 100 µM (inactive),> 100 µM (inactive),> 100 µM (inactive),> 100 µM (inactive),
Cc1cc(C)c2c(=N)c3ccccc3n(CCCCCCO)c2n1,4.22 µM (inactive),2.55 µM (inactive),2.45 µM (inactive),2.94 µM (inactive),5.48 µM (inactive),6.89 µM (inactive),5.6 µM (inactive),10.5 µM (inactive),2.48 µM (inactive),4.17 µM (inactive),2.31 µM (inactive),1.91 µM (inactive),1.22 µM (inactive),,1.03 µM (active),3.51 µM (inactive),5.2 µM (inactive),,4.26 µM (inactive)
